According to ChEMBL document CHEMBL1201862, “PubChem BioAssay data set” (2004):
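Cultured in 96-well plates, cells were exposed to test compound for 48 hours across five concentrations. At the GI50, growth is halved.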 Calls of active or inactive are those of the source. Cut-off read from the data, not from the text of the source: active = GI50 up to about 1.1 µM and inactive = higher.

Assays:
Test in all cases: NCI-60 cell line screen, 48 h
[1] = system: Malme-3M
[2] = system: TK-10
[3] = system: DU-145
[4] = system: MCF7
[5] = system: HCT-116
[6] = system: T47D
[7] = system: UO-31
[8] = system: SW-620
[9] = system: SK-MEL-28
[10] = system: HOP-92
[11] = system: COLO 205
[12] = system: MOLT-4
[13] = system: SF-268
[14] = system: M14
[15] = system: IGROV-1
[16] = system: SK-MEL-2
[17] = system: U-251
[18] = system: NCI-H23
[19] = system: UACC-257
[20] = system: OVCAR-5

Row | Compound | GI50 [1] | GI50 [2] | GI50 [3] | GI50 [4] | GI50 [5] | GI50 [6] | GI50 [7] | GI50 [8] | GI50 [9] | GI50 [10] | GI50 [11] | GI50 [12] | GI50 [13] | GI50 [14] | GI50 [15] | GI50 [16] | GI50 [17] | GI50 [18] | GI50 [19] | GI50 [20]
1 | O=C1C=Cc2c(I)sc(I)c21 | 14.5 µM (inactive) | 30.2 µM (inactive) | 30 µM (inactive) | 18.4 µM (inactive) | 15.7 µM (inactive) | 18.1 µM (inactive) | 15.8 µM (inactive) | 13.4 µM (inactive) | 19.8 µM (inactive) | 17 µM (inactive) | 19 µM (inactive) | 12 µM (inactive) | 12.4 µM (inactive) | 27 µM (inactive) | 15.9 µM (inactive) | 20.1 µM (inactive) | 17 µM (inactive) | 18.9 µM (inactive) | 20 µM (inactive) | 25.1 µM (inactive)
2 | Nc1c2ccccc2nc2ccc3c(=O)cc(-c4ccccc4)oc3c12 | 1.66 µM (inactive) | 2.07 µM (inactive) | 1.75 µM (inactive) | 0.649 µM (active) | 0.299 µM (active) | 1.17 µM (inactive) | 1.5 µM (inactive) | 0.327 µM (active) | 1.55 µM (inactive) | 1.24 µM (inactive) | 0.234 µM (active) | 0.435 µM (active) | 1.22 µM (inactive) | 1.21 µM (inactive) | 1.12 µM (inactive) | 1.96 µM (inactive) | 0.531 µM (active) | 1.53 µM (inactive) | 1.75 µM (inactive) | 1.5 µM (inactive)
3 | COC(=O)C1SC(N(C)c2ccccc2)=NC12c1ccccc1Nc1ccccc12 (stereo not given) | 15.8 µM (inactive) | 29.8 µM (inactive) | 25.7 µM (inactive) | 22 µM (inactive) | 23.3 µM (inactive) | 15.7 µM (inactive) | 22.5 µM (inactive) | 27.9 µM (inactive) | 19.2 µM (inactive) | 14.1 µM (inactive) | 14.5 µM (inactive) | 7.31 µM (inactive) | 21 µM (inactive) | 19.5 µM (inactive) | 14.2 µM (inactive) | 15.5 µM (inactive) | 27.5 µM (inactive) | 13.6 µM (inactive) | 25.2 µM (inactive) | 25.3 µM (inactive)
4 | CCCCCc1cc(CCCC)sc1-c1ccco1 | 40 µM (inactive) | > 100 µM (inactive) | > 100 µM (inactive) | 76.4 µM (inactive) | 29.6 µM (inactive) | > 91.2 µM (inactive) | > 100 µM (inactive) | > 100 µM (inactive) | > 100 µM (inactive) | > 100 µM (inactive) | > 100 µM (inactive) | 51.9 µM (inactive) | > 100 µM (inactive) | 97.5 µM (inactive) | > 100 µM (inactive) | > 83.9 µM (inactive) | > 76.7 µM (inactive) | > 100 µM (inactive) | > 64.3 µM (inactive) | > 87.3 µM (inactive)
5 | CC(C)=CCC/C(C)=C/CC/C(C)=C/CC/C(C)=C/C=C/C=C(\C)CC/C=C(\C)CC/C=C(\C)CCC=C(C)C | > 77.1 µM (inactive) | > 58.7 µM (inactive) | > 56.9 µM (inactive) | 44.2 µM (inactive) | > 92.5 µM (inactive) | 72.1 µM (inactive) | 25.3 µM (inactive) | > 100 µM (inactive) | > 100 µM (inactive) | 45.5 µM (inactive) | > 100 µM (inactive) | 19.7 µM (inactive) | > 58.7 µM (inactive) | > 100 µM (inactive) | 17.5 µM (inactive) | > 100 µM (inactive) | 63.7 µM (inactive) | 68.2 µM (inactive) | > 100 µM (inactive) | > 100 µM (inactive)
6 | Cc1nc2c(sc(=S)n2-c2ccccc2)c2nc3ncccc3n12 | > 100 µM (inactive) | 33.7 µM (inactive) | > 100 µM (inactive) | > 100 µM (inactive) | > 100 µM (inactive) | > 100 µM (inactive) | > 100 µM (inactive) | > 100 µM (inactive) | > 100 µM (inactive) | > 100 µM (inactive) | > 100 µM (inactive) | > 100 µM (inactive) | 66.7 µM (inactive) | > 100 µM (inactive) | > 100 µM (inactive) | 65.8 µM (inactive) | 32.6 µM (inactive) | > 100 µM (inactive) | > 100 µM (inactive) | > 100 µM (inactive)
7 | COc1ccc2c(-c3ccc(OCCN(C)C)cc3)c(Oc3ccccc3)c(=O)oc2c1 | 3.12 µM (inactive) | 9.79 µM (inactive) | 12.2 µM (inactive) | 3.57 µM (inactive) | 2.58 µM (inactive) | 7.85 µM (inactive) | 4 µM (inactive) | 4.2 µM (inactive) | 2.31 µM (inactive) | 9.53 µM (inactive) | 3.01 µM (inactive) | 2.71 µM (inactive) | 6.18 µM (inactive) | 1.64 µM (inactive) | 5.42 µM (inactive) | 5.33 µM (inactive) | 2.82 µM (inactive) | 12 µM (inactive) | 2.09 µM (inactive) | 14.2 µM (inactive)
8 | CC(C)NC(NC(C)C)=C(S(=O)(=O)C(F)(F)C(F)(F)C(F)(F)C(F)(F)F)S(=O)(=O)C(F)(F)C(F)(F)C(F)(F)C(F)(F)F | > 100 µM (inactive) | > 100 µM (inactive) | > 100 µM (inactive) | > 100 µM (inactive) | > 100 µM (inactive) | > 100 µM (inactive) | > 100 µM (inactive) | > 100 µM (inactive) | > 100 µM (inactive) | > 100 µM (inactive) | > 100 µM (inactive) | > 100 µM (inactive) | > 100 µM (inactive) | > 100 µM (inactive) | > 100 µM (inactive) | > 100 µM (inactive) | > 100 µM (inactive) | > 100 µM (inactive) | > 100 µM (inactive) | > 100 µM (inactive)
9 | O=C1C=CC(=O)c2c1ccc1c3ccccc3n(-c3ccccc3)c21 | 4.47 µM (inactive) | 7.66 µM (inactive) | 19.8 µM (inactive) | 2.11 µM (inactive) | 2.37 µM (inactive) | 2.05 µM (inactive) | 11.9 µM (inactive) | 2.29 µM (inactive) | 3.34 µM (inactive) | 2.61 µM (inactive) | 4.56 µM (inactive) | 0.561 µM (active) | 17.4 µM (inactive) | 7.78 µM (inactive) | 18.3 µM (inactive) | 13.1 µM (inactive) | 15.2 µM (inactive) | 15.4 µM (inactive) | 5.65 µM (inactive) | 17.1 µM (inactive)
10 | CCN1CCN(c2nc3ccccc3c3c2CCOc2ccccc2-3)CC1 | 17.2 µM (inactive) | 39.5 µM (inactive) | > 31.6 µM (inactive) | > 39.8 µM (inactive) | 29.3 µM (inactive) | 35.5 µM (inactive) | 24.6 µM (inactive) | 24.9 µM (inactive) | 16.6 µM (inactive) | 28.8 µM (inactive) | 17.4 µM (inactive) | 10.6 µM (inactive) | 39.1 µM (inactive) | 18.5 µM (inactive) | 22.2 µM (inactive) | 27.4 µM (inactive) | 32.9 µM (inactive) | > 62.5 µM (inactive) | 18.1 µM (inactive) | > 45.1 µM (inactive)
